From ChEMBL document CHEMBL1909046, “DrugMatrix in vitro pharmacology data” come the findings set out here.

The target of data set [1] is T1, Cholecystokinin receptor type A (Homo sapiens, UniProt P32238). Also: in other assays of this panel Not Active means under 50% inhibition at 10 µM.
T1 sequence (P32238 whole entry): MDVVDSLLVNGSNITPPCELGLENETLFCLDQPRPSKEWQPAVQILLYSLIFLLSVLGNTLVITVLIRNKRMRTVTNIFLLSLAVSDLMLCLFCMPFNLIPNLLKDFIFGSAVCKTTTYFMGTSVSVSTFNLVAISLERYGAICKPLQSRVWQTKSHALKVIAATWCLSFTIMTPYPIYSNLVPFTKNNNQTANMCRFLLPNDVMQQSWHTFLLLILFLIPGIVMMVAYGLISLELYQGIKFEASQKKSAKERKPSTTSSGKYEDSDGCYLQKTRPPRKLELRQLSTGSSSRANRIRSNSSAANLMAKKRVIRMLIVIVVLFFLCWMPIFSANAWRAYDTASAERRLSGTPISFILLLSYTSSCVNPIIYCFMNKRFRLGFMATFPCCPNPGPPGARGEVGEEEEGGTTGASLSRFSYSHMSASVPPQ
Type of data set: cell membranes, Membrane. The following applies: 1321-n1.

A further data set concerns the target Cytochrome P450 2E1 (Homo sapiens, UniProt P05181). To be noted: bti-tn-5b1-4. Also: in other assays of this panel Not Active means under 50% inhibition at 10 µM.
For data set [2], the target named is cGMP-specific 3',5'-cyclic phosphodiesterase (Homo sapiens, UniProt O76074). Put plainly: DRUGMATRIX: Phosphodiesterase PDE5 enzyme inhibition (substrate: [3H]cGMP + cGMP). It counts as tissue-based. The following applies: platelet; Not Active = under 50% inhibition at 10 µM.
A short description of data set [3]: DRUGMATRIX: Nicotinic Acetylcholine radioligand binding (ligand: [125I] Epibatidine). It counts as cell membranes, Membrane. To be noted: imr-32; Not Active = under 50% inhibition at 10 µM.
In a further data set the target is Cannabinoid receptor 1 (Homo sapiens, UniProt P21554). Type of data set: cell membranes, Membrane. The following applies: chem-1. Also: in other assays of this panel Not Active means under 50% inhibition at 10 µM.
In data set [4] the target is T2, Vasoactive intestinal polypeptide receptor 1 (Homo sapiens, UniProt P32241). Also: in other assays of this panel Not Active means under 50% inhibition at 10 µM.
T2 sequence (P32241 whole entry): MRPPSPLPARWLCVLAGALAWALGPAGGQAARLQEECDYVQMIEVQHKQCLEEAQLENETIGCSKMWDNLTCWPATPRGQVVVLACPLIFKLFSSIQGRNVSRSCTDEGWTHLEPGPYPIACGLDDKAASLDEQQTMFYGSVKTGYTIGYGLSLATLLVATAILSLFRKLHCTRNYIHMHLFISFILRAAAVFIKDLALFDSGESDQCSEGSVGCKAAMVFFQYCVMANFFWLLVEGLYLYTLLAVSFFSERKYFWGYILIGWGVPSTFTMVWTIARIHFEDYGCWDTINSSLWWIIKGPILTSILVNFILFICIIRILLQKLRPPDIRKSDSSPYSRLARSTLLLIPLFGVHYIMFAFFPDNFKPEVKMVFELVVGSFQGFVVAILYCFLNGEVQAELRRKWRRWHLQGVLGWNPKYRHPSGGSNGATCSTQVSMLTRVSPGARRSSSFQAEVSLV
It counts as cell membranes, Membrane. To be noted: ht-29.

The target in data set [5] is Kappa-type opioid receptor (Homo sapiens, UniProt P41145). Put plainly: DRUGMATRIX: Opiate kappa (OP2, KOP) radioligand binding (ligand: [3H] Diprenorphine). The following applies: hek293; Not Active = under 50% inhibition at 10 µM. Type of data set: cell membranes, HEK293, Membrane.
A further data set addresses Histamine H2 receptor (Homo sapiens, UniProt P25021). Type of data set: cell membranes, CHO-K1, Membrane. To be noted: cho-k1.
Data set [6] is described as follows: DRUGMATRIX: Phosphodiesterase PDE3 enzyme inhibition (substrate: [3H]cAMP + cAMP). The following applies: platelet, Not Active = under 50% inhibition at 10 µM. Type of data set: tissue-based, Homo sapiens.

Histamine H2 receptor, sequence (P25021 whole entry): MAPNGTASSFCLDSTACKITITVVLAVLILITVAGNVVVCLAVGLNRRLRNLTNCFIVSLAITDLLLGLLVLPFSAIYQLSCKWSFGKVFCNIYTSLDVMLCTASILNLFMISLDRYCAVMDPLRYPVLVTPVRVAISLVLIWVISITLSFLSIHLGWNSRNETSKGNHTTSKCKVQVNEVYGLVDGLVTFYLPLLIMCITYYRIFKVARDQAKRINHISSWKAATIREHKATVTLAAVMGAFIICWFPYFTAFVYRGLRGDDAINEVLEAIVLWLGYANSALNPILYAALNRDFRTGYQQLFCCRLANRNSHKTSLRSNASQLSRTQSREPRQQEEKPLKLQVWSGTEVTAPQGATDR
Kappa-type opioid receptor, sequence (P41145 whole entry): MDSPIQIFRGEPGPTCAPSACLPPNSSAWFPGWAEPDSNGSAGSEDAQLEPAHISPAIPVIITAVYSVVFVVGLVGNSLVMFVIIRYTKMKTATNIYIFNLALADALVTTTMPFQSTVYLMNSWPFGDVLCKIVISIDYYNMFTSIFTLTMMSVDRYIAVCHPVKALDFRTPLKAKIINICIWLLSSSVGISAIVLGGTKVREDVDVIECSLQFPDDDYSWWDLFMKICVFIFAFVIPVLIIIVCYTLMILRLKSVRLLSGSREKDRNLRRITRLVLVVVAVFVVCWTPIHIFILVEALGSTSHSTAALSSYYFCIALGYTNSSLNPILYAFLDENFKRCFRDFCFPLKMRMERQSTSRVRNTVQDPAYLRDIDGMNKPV
Cannabinoid receptor 1, sequence (P21554 whole entry): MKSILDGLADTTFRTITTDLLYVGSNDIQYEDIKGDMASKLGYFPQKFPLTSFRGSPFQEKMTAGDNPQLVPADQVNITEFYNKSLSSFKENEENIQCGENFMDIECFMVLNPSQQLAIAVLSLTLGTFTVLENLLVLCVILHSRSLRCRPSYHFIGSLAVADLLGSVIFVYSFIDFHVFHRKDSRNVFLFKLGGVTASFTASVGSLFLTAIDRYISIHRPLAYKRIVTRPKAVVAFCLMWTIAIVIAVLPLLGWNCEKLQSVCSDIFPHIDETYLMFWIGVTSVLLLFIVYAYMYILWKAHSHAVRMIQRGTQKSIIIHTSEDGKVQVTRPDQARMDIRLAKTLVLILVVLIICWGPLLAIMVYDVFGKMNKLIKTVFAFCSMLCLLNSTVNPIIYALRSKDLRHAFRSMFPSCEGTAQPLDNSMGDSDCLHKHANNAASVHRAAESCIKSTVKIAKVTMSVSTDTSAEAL
Cytochrome P450 2E1, sequence (P05181 whole entry): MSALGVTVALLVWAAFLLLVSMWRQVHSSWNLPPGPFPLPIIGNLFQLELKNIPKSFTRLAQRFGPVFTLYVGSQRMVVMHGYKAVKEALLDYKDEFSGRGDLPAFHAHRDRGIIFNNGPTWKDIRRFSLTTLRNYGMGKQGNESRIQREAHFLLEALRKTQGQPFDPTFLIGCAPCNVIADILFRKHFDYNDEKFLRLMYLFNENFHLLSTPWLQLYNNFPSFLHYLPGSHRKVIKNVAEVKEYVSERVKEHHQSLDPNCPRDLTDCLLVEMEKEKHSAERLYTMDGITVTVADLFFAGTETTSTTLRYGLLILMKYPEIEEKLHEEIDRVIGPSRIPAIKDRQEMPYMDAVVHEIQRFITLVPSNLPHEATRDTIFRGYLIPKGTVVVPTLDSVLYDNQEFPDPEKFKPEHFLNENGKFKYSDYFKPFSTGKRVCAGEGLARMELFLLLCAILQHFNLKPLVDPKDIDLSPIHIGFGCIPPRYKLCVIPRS

As to `O=c1cc(-c2ccccc2)oc2ccc3ccccc3c12` [BETA-NAPHTHOFLAVONE], the IC50 entry (in data set [1]; against Cytochrome P450 2E1; in [2]; in [3]; on Cannabinoid receptor 1; in [4]) was “Not Active” in each case. For the same molecule, the IC50 result (in [5]; on Histamine H2 receptor; in [6]) was “Not Active” throughout. Besides, the Ki result (on Cytochrome P450 2E1; in data set [3]; in data set [6]) was “Not Active” throughout.
As for `CS(=O)(=O)OCCCCOS(C)(=O)=O` [BUSULFAN], the IC50 entry (in [1]; against Cytochrome P450 2E1; in [2]; in data set [3]; at Cannabinoid receptor 1; in [4]) was “Not Active” throughout. The 50% inhibitory concentration (IC50) result (in [5]; at Histamine H2 receptor; in data set [6]) was “Not Active” throughout. The Ki entry (at Cytochrome P450 2E1; in [3]; in data set [6]) was “Not Active” in each case.
On to `O=C(/C=C/c1ccc(O)c(O)c1)OCCc1ccccc1` [CAFFEIC ACID PHENETHYL ESTER], for which the IC50 result (in data set [1]; against Cytochrome P450 2E1; in data set [2]; in data set [3]; against Cannabinoid receptor 1; in [4]) was “Not Active” in each case. Besides, the IC50 entry (in data set [5]; at Histamine H2 receptor; in [6]) was “Not Active” throughout. The Ki entry (at Cytochrome P450 2E1; in data set [3]; in [6]) was “Not Active” in each case.
Turning to `COc1cc(CNC(=O)CCCC/C=C/C(C)C)ccc1O` [CAPSAICIN], the IC50 entry (in data set [1]; at Cytochrome P450 2E1; in data set [2]; in [3]; at Cannabinoid receptor 1; in [4]) was “Not Active” in each case. The IC50 entry (in data set [5]; on Histamine H2 receptor; in data set [6]) was “Not Active” throughout. The Ki entry (on Cytochrome P450 2E1; in data set [3]; in [6]) was “Not Active” in each case.
Consider `NC(=O)N1c2ccccc2C=Cc2ccccc21` [CARBAMAZEPINE], for which the IC50 entry (in data set [1]; against Cytochrome P450 2E1; in data set [2]; in [3]; against Cannabinoid receptor 1; in data set [4]) was “Not Active” throughout. The IC50 entry (in data set [5]; on Histamine H2 receptor; in [6]) was “Not Active” each time. The Ki result (on Cytochrome P450 2E1; in data set [3]; in [6]) was “Not Active” in each case.
Regarding `CCOC(=O)n1ccn(C)c1=S` [CARBIMAZOLE], the IC50 entry (in data set [1]; at Cytochrome P450 2E1; in data set [2]; in data set [3]; on Cannabinoid receptor 1; in data set [4]) was “Not Active” each time. Besides, the IC50 entry (in data set [5]; on Histamine H2 receptor; in [6]) was “Not Active” in each case. In addition, the Ki result (at Cytochrome P450 2E1; in data set [3]; in [6]) was “Not Active” in each case.
In the case of `Oc1ccccc1O` [CATECHOL], the IC50 result (in [1]; against Cytochrome P450 2E1; in data set [2]; in data set [3]; against Cannabinoid receptor 1; in data set [4]) was “Not Active” each time. Moreover, the IC50 result (in data set [5]; against Histamine H2 receptor; in data set [6]) was “Not Active” throughout. Further, the Ki result (on Cytochrome P450 2E1; in data set [3]; in [6]) was “Not Active” each time.
With `CO[C@@]1(NC(=O)CSCC#N)C(=O)N2C(C(=O)O)=C(CSc3nnnn3C)CS[C@@H]21` [CEFMETAZOLE], the IC50 entry (in data set [1]; on Cytochrome P450 2E1; in [2]; in data set [3]; on Cannabinoid receptor 1; in [4]) was “Not Active” in each case. Besides, the IC50 entry (in data set [5]; at Histamine H2 receptor; in [6]) was “Not Active” throughout. For the same molecule, the Ki result (on Cytochrome P450 2E1; in data set [3]; in data set [6]) was “Not Active” each time.
For `CN(C(=O)CCCOc1ccc2[nH]c(=O)ccc2c1)C1CCCCC1` [CILOSTAMIDE], the IC50 entry (in data set [1]; against Cytochrome P450 2E1; in [2]; in [3]; against Cannabinoid receptor 1; in [4]) was “Not Active” each time. For the same molecule, the IC50 entry was “Not Active” in data set [5], “Not Active” at Histamine H2 receptor and 55 nM in data set [6] (read-out: IC50). The Ki entry (at Cytochrome P450 2E1; in [3]) was “Not Active” in each case.
In the case of `CC(C)(Oc1ccc(C2CC2(Cl)Cl)cc1)C(=O)O` (configuration not stated) [CIPROFIBRATE], the IC50 result (in data set [1]; at Cytochrome P450 2E1; in data set [2]; in [3]; on Cannabinoid receptor 1; in data set [4]) was “Not Active” each time. Further, the IC50 result (in data set [5]; against Histamine H2 receptor; in data set [6]) was “Not Active” each time. Also, the Ki result (at Cytochrome P450 2E1; in [3]; in data set [6]) was “Not Active” in each case.
Regarding `Nc1nc(Cl)nc2c1ncn2[C@H]1C[C@H](O)[C@@H](CO)O1` [CLADRIBINE], the IC50 entry (in data set [1]; against Cytochrome P450 2E1; in [2]; in data set [3]; against Cannabinoid receptor 1; in data set [4]) was “Not Active” in each case. The IC50 entry (in [5]; against Histamine H2 receptor; in [6]) was “Not Active” each time. Besides, the Ki entry (on Cytochrome P450 2E1; in [3]; in data set [6]) was “Not Active” in each case.
For `CC[C@H]1OC(=O)[C@H](C)[C@@H](O[C@H]2C[C@@](C)(OC)[C@@H](O)[C@H](C)O2)[C@H](C)[C@@H](O[C@@H]2O[C@H](C)C[C@H](N(C)C)[C@H]2O)[C@](C)(OC)C[C@@H](C)C(=O)[C@H](C)[C@@H](O)[C@]1(C)O` [CLARITHROMYCIN], the IC50 result (in data set [1]; on Cytochrome P450 2E1; in [2]; in data set [3]; against Cannabinoid receptor 1; in data set [4]) was “Not Active” throughout. Also, the IC50 result (in [5]; against Histamine H2 receptor; in [6]) was “Not Active” in each case. In addition, the Ki entry (at Cytochrome P450 2E1; in [3]; in data set [6]) was “Not Active” throughout.
Regarding `O=C(O)c1cc(=O)c2c(OCC(O)COc3cccc4oc(C(=O)O)cc(=O)c34)cccc2o1` [CROMOLYN], the IC50 entry (in data set [1]; against Cytochrome P450 2E1; in [2]; in data set [3]; against Cannabinoid receptor 1; in data set [4]) was “Not Active” in each case. Also, the IC50 entry (in data set [5]; against Histamine H2 receptor; in [6]) was “Not Active” throughout. Also, the Ki result (on Cytochrome P450 2E1; in data set [3]; in [6]) was “Not Active” in each case.
`O=P1(N(CCCl)CCCl)NCCCO1` (configuration not stated) [CYCLOPHOSPHAMIDE ANHYDROUS]: the IC50 result (in data set [1]; at Cytochrome P450 2E1; in [2]; in data set [3]; against Cannabinoid receptor 1; in data set [4]) was “Not Active” throughout. Also, the half-inhibitory concentration (IC50) result (in data set [5]; at Histamine H2 receptor; in data set [6]) was “Not Active” throughout. Moreover, the Ki entry (on Cytochrome P450 2E1; in data set [3]; in [6]) was “Not Active” each time.

Broadly, the IC50 is the concentration that gives 50% inhibition.
